Measurements from PubChem BioAssay (NCI).
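A five-concentration, 48-hour dose response in 96-well plates underlies each endpoint, interpolated linearly between surrounding concentrations. TGI marks complete inhibition of growth.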

What was measured:
Assay in all cases: inhibition of tumour cell growth, NCI panel, 48 h
DLD-1 colon = system: DLD-1 colon
DMS 114 small cell lung = system: DMS 114 small cell lung
HL-60(TB) leukemia = system: HL-60(TB) leukemia
HOP-62 NSCLC = system: HOP-62 NSCLC
LOX IMVI melanoma = system: LOX IMVI melanoma
LXFL 529 NSCLC = system: LXFL 529 NSCLC
OVCAR-3 ovarian = system: OVCAR-3 ovarian
OVCAR-5 ovarian = system: OVCAR-5 ovarian
OVCAR-8 ovarian = system: OVCAR-8 ovarian
SF-268 CNS = system: SF-268 CNS
SF-539 CNS = system: SF-539 CNS
SNB-19 CNS = system: SNB-19 CNS
XF 498 CNS = system: XF 498 CNS
CAKI-1 renal = system: CAKI-1 renal
SR leukemia = system: SR leukemia
A498 renal = system: A498 renal
DU-145 prostate = system: DU-145 prostate
HS 578T breast = system: HS 578T breast
PC-3 prostate = system: PC-3 prostate
T-47D breast = system: T-47D breast

Row | Compound | TGI (DLD-1 colon) [µM] | TGI (DMS 114 small cell lung) [µM] | TGI (HL-60(TB) leukemia) [µM] | TGI (HOP-62 NSCLC) [µM] | TGI (LOX IMVI melanoma) [µM] | TGI (LXFL 529 NSCLC) [µM] | TGI (OVCAR-3 ovarian) [µM] | TGI (OVCAR-5 ovarian) [µM] | TGI (OVCAR-8 ovarian) [µM] | TGI (SF-268 CNS) [µM] | TGI (SF-539 CNS) [µM] | TGI (SNB-19 CNS) [µM] | TGI (XF 498 CNS) [µM] | TGI (CAKI-1 renal) [µM] | TGI (SR leukemia) [µM] | TGI (A498 renal) [µM] | TGI (DU-145 prostate) [µM] | TGI (HS 578T breast) [µM] | TGI (PC-3 prostate) [µM] | TGI (T-47D breast) [µM]
1 | Cc1cn([C@@H]2C[C@H](CO)[C@@H](O)C2)c(=O)[nH]c1=O | > 100 | > 100 | > 100 | > 100 | > 100 | > 100 | > 100 | > 100 | > 100 | > 100 | > 100 | > 100 | > 100 | – | – | – | – | – | – | –
2 | Cn1ccnc1C(O)(c1nccn1C)c1nccn1C | > 100 | > 100 | > 100 | > 100 | > 100 | > 100 | – | > 100 | > 100 | > 100 | – | > 100 | > 100 | > 100 | > 100 | – | – | – | – | –
3 | C=CCNC(=S)N=Nc1c(O)[nH]c2ccc([N+](=O)[O-])cc12 | – | – | > 100 | > 100 | > 100 | – | > 100 | > 100 | > 100 | > 100 | > 100 | > 100 | – | > 100 | > 100 | 91.7 | > 100 | > 100 | > 100 | 87.4
4 | CCC1=NC(C(F)(F)F)(C(F)(F)F)N=C(N2CCOCC2)O1 | – | – | > 100 | – | > 100 | – | > 100 | > 100 | > 100 | > 100 | > 100 | > 100 | – | > 100 | > 100 | – | > 100 | > 100 | > 100 | > 100
5 | c1ccc2c(c1)c1c(n2CCOCCN2CCOCC2)CCCC1 | – | – | 51.9 | > 100 | 63.6 | – | > 100 | > 100 | > 100 | > 100 | > 100 | > 100 | – | > 100 | > 100 | 98.9 | > 100 | > 100 | > 100 | > 100
